The test system of one assay is mice. In words: Thermal pain thresholds after intraplantar injection (Hargreaves, radiant heat). It counts as in vivo. The following applies: CAY10583 10 μl, 5 μM intraplantarly, compared to vehicle. The protocol:
FIG. 5: BLT2 activation decreases thermal pain thresholds in mice. CAY10583 (10 μl, 5 μM) or vehicle was administered intraplantarly. Thermal thresholds were determined at the indicated time points. Data are presented as mean±S.E.M. of 6 animals. Two way ANOVA/Bonferroni *P<0.05, **P<0.005, ****P<0.0005.
All animal experiments were performed according to the recommendations in the Guide for the Care and Use of Laboratory Animals of the National Institutes of Health and approved by the local Ethics Committees for Animal Research (Darmstadt). For all behavioral experiments the inventors used only 6-12 weeks old male C57BL/6N mice purchased from commercial breeding companies (Charles River, Sulzfeld, Germany, Janvier, Le Geneset-Saint-Isle, FR). To compare mechanical thresholds the inventors used age and sex matched littermates as control.
For the determination of mechanical allodynia or thermal hypersensitivity, mice were kept in test cages on an elevated grid for at least 2 hours to allow accommodation. […] The non-injected and injected paws were measured alternately in intervals of 5-10 min. […]

The test system of another assay is TRPV1. In words: Calcium imaging of capsaicin double-stimulated DRG neurons (TRPV1 sensitization). It counts as cell-based, murine. The following applies: for effect on TRPV1 sensitization by LTB4 (100 nM or 1 μM), FIG. 3 legend: U73502 1 μM; for effect on TRPV1 sensitization by LTB4 (100 nM or 1 μM), FIG. 3 legend / effect on TRPV1 sensitization induced by 100 nM LTB4: CAY10583 400 nM; for effect on TRPV1 sensitization induced by 100 nM LTB4: U75302 1 μM, 2 minute pretreatment. The protocol:
(A) DRG neurons were double stimulated with capsaicin (200 nM, 15 s each) and incubated with either vehicle or LTB4 (100 nM) for two minutes prior to the second capsaicin stimulation. (B) Dose-dependent difference in ratio between the first and the second capsaicin response using the same protocol as described in (A). Data represent the mean±SEM of the following number of neurons (n=20-86); ANOVA Kruskal-Wallis test; Dunn's multiple comparisons test *p<0.05, ****p<0.0001 student's t-test.
FIG. 3: BLT1 mediates TRPV1-sensitization and BLT2 mediates TRPV1-desensitization by LTB4. (A) DRG neurons were double stimulated with capsaicin (200 nM, 15 s each) and incubated with either vehicle or the indicated compounds for two minutes prior to the second capsaicin stimulation. […] Data represent mean±SEM 20-105 cells. ANOVA Kruskal-Wallis test; Dunn's multiple comparisons test *p<0.05, **p<0.01, ****p<0.0001 student's t-test; n.s. not significant.
FIG. 4: BLT2 activation inhibits […] by EP4 and Bradykinin. (A) DRG neurons were double stimulated with capsaicin (200 nM, 15 s each) and incubated with either the EP4 agonist ONOae329 (500 nM) or with ONOae329 and CAY10583 (400 nM) together for two minutes prior to the second capsaicin stimulation. (B) Difference in ratio between the first and the second capsaicin response using the same protocol as described in panel A. Data represent the mean±SEM of the following number of neurons: 52 (vehicle), 109 (ONOae329), 106 (ONOae329+CAY10583); One-Way ANOVA, Dunn's multiple comparisons test; **p<0.0096. (C+D) same as panel A+B except that 500 nM bradykinin was used for TRPV1 sensitization. Data represent the mean±SEM of the following number of neurons: 33 (vehicle), 83 (bradykinin), 93 (bradykinin+CAY10583); One-Way ANOVA, Holm-Sidak's multiple comparisons test; *p=0.0126
Murine DRGs were dissected from spinal segments and directly transferred to ice cold HBSS with CaCl2 and MgCl2 (Invitrogen, Carsbad, Calif., USA). Next, isolated DRGs were incubated with collagenase/dispase (500 U/ml Collagenase; 2.5 U/ml Dispase) in neurobasal medium containing L-glutamine [2 mM] penicillin (100 U/ml), streptomycin (100 μg/ml), B-27 and gentamicin (50 μg/ml) (all from Invitrogen, Carlsbad, Calif., USA) at 37° C. for 75 min. After removal of the collagenase/dispase-solution, cells were washed twice with neurobasal medium containing 10% FCS and incubated for 10 min with 0.05% trypsin (Invitrogen, Carlsbad, Calif., USA). The washing steps were repeated and the cells were mechanically dissociated with a 1 ml Gilson pipette. Finally, the neurons were plated on poly-l-lysine (Sigma, Deisenhofen, Germany) coated glass cover slips and incubated with neurobasal medium containing L-glutamine [2 mM] penicillin (100 U/ml), streptomycin (100 μg/ml), B-27 and gentamicin (50 μg/ml) over night until assessment by calcium imaging.
Calcium-Imaging experiments were performed as published previously. Briefly, Leica Calcium-imaging setup was used, consisting of a Leica DMI 4000 b inverted microscope equipped with a DFC360 FX (CCD-) camera, Fura-2 filters and an N-Plan 10×/0.25 Ph1 objective (all from Leica Microsystems, Wetzlar, Germany). Images were taken every 2 seconds and processed with the LAS AF-software. For each experiment the inventors chose an area with large cell numbers and monitored 40-110 cells simultaneously. Calcium-Imaging experiments were performed using DRG-neurons 24-48 hours after preparation. […]

The mark [1] stands for this setting: DRG neurons, capsaicin 200 nM, LY2552833 10 μM.

The structures appear in SMILES notation.

In the case of `CCCCC(=O)N(Cc1ccc(-c2ccccc2C(=O)O)cc1)c1ccccc1` [CAY10583, 4′-[[(1-oxopentyl)phenylamino]methyl]-[1,1′-biphenyl]-2-carboxylic acid], the thermal pain thresholds entry in the assay on mice is “significantly increase”. Further, the “effect on bradykinin-induced sensitization of TRPV1 through PKC” value in the assay with TRPV1 (DRG neurons, 500 nM bradykinin with CAY10583 400 nM) was “significantly decreased”. The “effect on TRPV1 sensitization by LTB4 (100 nM or 1 μM), FIG. 3 legend” value (from here on “effect on TRPV1 sensitization by LTB4”) with TRPV1 (DRG neurons, LY2552833 10 μM) is “reduced”. The “effect by itself on capsaicin-induced TRPV1 activation” value in the assay with TRPV1 (DRG neurons, capsaicin 200 nM, CAY10583 400 nM alone) is “no effect”. Moreover, the “effect on TRPV1 sensitization induced by 100 nM LTB4” value (from here on “effect … by 100 nM LTB4”) with TRPV1 (setting [1]) is given as “abolished”. The “effect on ONOae329-induced TRPV1 sensitization” value with TRPV1 (murine DRG neurons, ONOae329 500 nM together with CAY10583 400 nM) is given as “abolished”.

Take `CCCCC/C=C\C[C@@H](O)/C=C/C=C/C=C\[C@@H](O)CCCC(=O)O` [LTB4, Leucotriene (LT) B4]: the “TRPV1 sensitization in DRG neurons, dose dependence, FIG. 1 legend” value with TRPV1 (DRG neurons, capsaicin 200 nM double stimulation) was “dose dependently sensitizes TRPV1”. The “enhanced response (TRPV1 sensitization) at higher LTB4 concentrations” value in the assay on TRPV1 (murine DRG neurons, 200-1000 nM LTB4 prior to second capsaicin stimulation) is “reduced”. In the assay on TRPV1 (murine DRG neurons, preincubation with 100 nM LTB4 for two minutes prior to second capsaicin (200 nM) stimulation), the “capsaicin-induced intracellular calcium increases” value is given as “doubled”.

On to `CCc1cc(C(C)=O)c(O)cc1OCCCCCC(C)(C)c1nn[nH]n1` [LY2552833], for which the “effect on TRPV1 sensitization by LTB4” value in the assay with TRPV1 (DRG neurons, LY2552833 10 μM) is reported as “increases TRPV1 sensitization”. Also, in the assay with TRPV1 (setting [1]), the “effect on TRPV1 sensitization by 1000 nM LTB4” value is reported as “increased” and the “effect … by 100 nM LTB4” value was “no significant effect”.

`COCc1ccccc1CC[C@H](O)/C=C/[C@H]1[C@H](O)CC(=O)[C@@H]1SCCCSCC(=O)O` [ONOae329]: the “sensitization of TRPV1 responses to capsaicin” value with TRPV1 (murine DRG neurons, pretreatment with ONOae329 500 nM) was “strong sensitization”.

Regarding `CCCCC/C=C\C[C@@H](O)/C=C/c1cccc(C[C@@H](O)CCCCO)n1` [U75302, 6-(6-(3R-hydroxy-1E,5Z-undecadien-1-yl)-2-pyridinyl)-1,5S-hexanediol], in the assay on TRPV1 (DRG neurons, LY2552833 10 μM), the “effect on TRPV1 sensitization by LTB4” value was “reduced”. For the same compound, the “effect … by 100 nM LTB4” value in the assay on TRPV1 (setting [1]) is on record as “able to abolish”.
